Consider one substance from patent publication US20240384250A1, “FIBROBLAST GROWTH FACTOR 23 MODULATING COMPOUNDS” (THE UAB RESEARCH FOUNDATION, priority 2021, published 2024).

The subject of one assay is male BALB/c mice. As to the kind of experiment: Serial FGF23 and heparin injections in mice, echocardiography and heart weight. Type of assay: in vivo, mouse. As to conditions: heparin 125 USP/kg and/or FGF23 40 μg/kg. As for the experimental part: FGF23 injections were administered following a similar protocol established previously. 13,72,73 Briefly, 12-week-old male BALB/c mice (The Jackson Laboratory) underwent tail vein injections. The day before the experiment, mice underwent echocardiographic analysis, as described below. Mice were anesthetized in 2.5% isoflurane and placed on a heat pad. Each group consisted of 5 mice, and different groups were injected with isotonic saline, heparin, FGF23, or FGF23 and heparin combined. Per injection, 40 μg/kg of FGF23 and 125, 62.5, or 12.5 USP/kg of heparin dissolved in 200 μl of isotonic saline were used, with 8 hours were used between injections for a total of 5 consecutive days. All injections were performed via the lateral tail vein. On the morning of the sixth day, 16 hours after the final tail vein injection, animals underwent echocardiographic analysis and were killed. Middle sections of hearts were cut along the short axis and stored overnight in 4% phosphate-buffered formaldehyde solution. Sections were sent to IDEXX Laboratories for embedding, hematoxylin and eosin (H&E) staining, and sectioning. Sections for wheat germ agglutinin (WGA) labeling were not stained by IDEXX Laboratories.
Echocardiographic analysis was performed on day 6 of the experiment for FGF23-injected mice by using the Vevo 770 or Vevo 3100 imaging system (FUJIFILM VisualSonics). Animals were anesthetized with 1.5% isoflurane, and normal body temperature was maintained using a rectal probe for temperature monitoring. For analysis, both B- and M-mode images were obtained in the short- and long-axis views. Correct positioning of the transducer was ensured using B-mode imaging in the long-axis view before switching to the short-axis view. Image analysis was performed using Vevo 770 Workstation and Vevo LAB software (FUJIFILM VisualSonics).

The target in another assay is T1, FGF23/FGFR4 binding (Homo sapiens, UniProt P22455+Q9GZV9, R179Q).
T1 construct: Fc-FGFR4 protein (human ectodomain) was immobilized; purchased R&D Systems human FGF23 2604FG025/CF; human FGFR4 685FR050
T1 sequence (Q9GZV9 25-251 R179Q): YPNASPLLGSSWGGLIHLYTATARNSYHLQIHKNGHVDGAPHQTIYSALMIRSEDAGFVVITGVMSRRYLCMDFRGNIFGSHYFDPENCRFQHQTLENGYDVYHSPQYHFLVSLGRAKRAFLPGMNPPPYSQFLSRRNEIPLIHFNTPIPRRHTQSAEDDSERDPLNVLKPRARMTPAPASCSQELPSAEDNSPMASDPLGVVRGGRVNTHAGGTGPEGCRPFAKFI
T1 sequence (P22455 22-369 limits assumed): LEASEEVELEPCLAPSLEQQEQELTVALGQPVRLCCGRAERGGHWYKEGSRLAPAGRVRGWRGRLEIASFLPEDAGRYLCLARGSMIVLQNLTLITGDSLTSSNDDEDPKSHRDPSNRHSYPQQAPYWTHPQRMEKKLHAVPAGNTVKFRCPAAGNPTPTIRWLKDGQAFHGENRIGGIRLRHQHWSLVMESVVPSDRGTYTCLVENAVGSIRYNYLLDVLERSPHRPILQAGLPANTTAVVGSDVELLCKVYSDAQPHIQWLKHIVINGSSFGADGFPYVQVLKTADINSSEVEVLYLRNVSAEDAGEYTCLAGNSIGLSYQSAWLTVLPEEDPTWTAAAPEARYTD
The experiment in a line: Surface plasmon resonance, FGF23 binding to surface FGFR4 with heparin or sKL in solution. Particulars: heparin or sKL in solution. As for the experimental part: For the direct quantitative analysis of label-free molecular interactions in real time, surface plasmon resonance studies were conducted using BIAcore T200 and T200 evaluation software (28975001, Cytiva). Sensor SA (BR100398) and CMS chips (BR100399) were from Cytiva. For the preparation of heparin chips, heparin (2 mg) and amine-PEG3-Biotin (2 mg, 21347, Pierce) were dissolved in 200 μl of H2O and 10 mg of NaCNBH3 was added. The reaction mixture was heated at 70° C. for 24 hours; an additional 10 mg of NaCNBH3 was added; and the reaction was heated at 70° C. for another 24 hours. After cooling to room temperature, the mixture was desalted with the spin column (3000 MWCO). Biotinylated heparin was collected, freeze dried, and used for chip preparation. Biotinylated heparin was immobilized to streptavidin chips according to the manufacturer's protocol. In brief, 20 μl of biotinylated heparin solution (0.1 mg/ml) in HBS-P running buffer (0.01 M N-2-hydroxyethylpiperazine-N′-2-ethanesulfonic acid, 0.15 M NaCl, 0.005% surfactant P20 [pH7.4]; BR100368, Cytiva) was injected over flow cell 2 of the streptavidin chip at a flow rate of 10 μl/min. The successful immobilization of heparin was confirmed by the observation of an approximately 200-resonance unit increase in the sensor chip. […] The response was monitored as a function of time (sensorgram) at 25° C.
In general terms: Surface plasmon resonance follows binding to a sensor surface in real time, without labels.

As for heparin [reference compound], in the assay with male BALB/c mice, the “Endocardial % EF” value turned out to be 56.51 ± 4.08%, the “Endocardial % FAC” value was found to be 47.34 ± 2.41%, the Endocardial Area; s worked out at 5.47 ± 0.44 mm² and the “Endocardial major; d” value was determined as 7.23 ± 0.11 mm. In addition, in the assay on male BALB/c mice, the Epicardial Area: s came to 18.2 ± 0.63 mm², the Epicardial Area; d is 22.5 ± 0.78 mm², the Heart rate came to 448.40 ± 4.52 BPM and the “LV Mass; d” value is 111.90 ± 5.23 mg. Moreover, in the assay with male BALB/c mice, the “T; d” value was found to be 0.88 ± 0.03 mm. The “increase in FGF23/FGFR4 binding affinity” value on FGF23/FGFR4 binding was “approximately 3 fold”.
